Data as given in PubChem BioAssay AID1199 (EPA DSSTox, 2008).
Calls of active or inactive are those of the source.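 Rule for the calls: active = a tumour-causing dose and a tumour site recorded for mice in at least one sex group; inconclusive = only government mouse studies exist and were judged inadequate; inactive = mouse studies exist but none gave tumours.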

Tested on: mouse carcinogenicity bioassay, TD50 from CPDB
Test: DSSTox (CPDBAS) Carcinogenic Potency Database Summary Mouse Bioassay Results
How it was run: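 Values are TD50 carcinogenic potencies from mouse chronic bioassays, taking the most positive result for each sex-species. Sources are published literature and NCI/NTP studies; target sites reflect author-reported positive findings.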

[1] = TD50_Mouse_Note: TD50 is harmonic mean of more than one positive test, TargetSites_Mouse_Female: lung
[2] = TD50_Mouse_Note: TD50 is harmonic mean of more than one positive test, TargetSites_Mouse_Female: liver
[3] = TD50_Mouse_Note: no positive results, TargetSites_Mouse_Female: no positive results
[4] = TargetSites_Mouse_Female: no positive results
[5] = TD50_Mouse_Note: only experiment is NCI/NTP bioassay inadequate, TargetSites_Mouse_Female: NTP bioassay inadequate
[6] = TargetSites_Mouse_Female: liver
[7] = TargetSites_Mouse_Female: hematopoietic system
[8] = TD50_Mouse_Note: no positive results

## C=Cc1ccccc1
[1]
  Potency: 2.02 mmol/kg/day

## CN1CCCC1=O
[2]
  Potency: 20.7 mmol/kg/day

## O=[N+]([O-])/C=C/c1ccccc1
[3]
  outcome: inactive; no positive results

## CCN(CC)C(=S)S[Te](SC(=S)N(CC)CC)(SC(=S)N(CC)CC)SC(=S)N(CC)CC
[3]
  outcome: inactive; no positive results

## CCCCN(CCCC)C(=S)[S-].CCCCN(CCCC)C(=S)[S-].[Zn+2]
[3]
  outcome: inactive; no positive results

## COc1c(Cl)c(Cl)c(Cl)c(Cl)c1Cl
[4]
  Potency: 0.243 mmol/kg/day

## CC/C=C(/CC)[N+](=O)[O-]
TargetSites_Mouse_BothSexes: lung
  Potency: 0.00268 mmol/kg/day

## Cc1ccccc1
[3]
  outcome: inactive; no positive results

## CCCc1ccc2c(c1)OCO2
[1]
  Potency: 0.761 mmol/kg/day

## CC(C)(c1ccc(O)cc1)c1ccc(O)cc1
[3]
  outcome: inactive; no positive results

## Cn1cc(C(=O)[C@@H]2CCc3nc[nH]c3C2)c2ccccc21
[3]
  outcome: inactive; no positive results

## C=CCN(N)CC=C
TD50_Mouse_Note: TD50 is harmonic mean of more than one positive test, TargetSites_Mouse_Female: lung, stomach
  Potency: 0.264 mmol/kg/day

## Cc1ccc(N)cc1
[2]
  Potency: 0.581 mmol/kg/day

## COc1cc(-c2ccc(N=C=O)c(OC)c2)ccc1N=C=O
[3]
  outcome: inactive; no positive results

## O=[N+]([O-])c1ccc2c3c(cccc13)CC2
TargetSites_Mouse_Female: liver, ovary
  Potency: 0.23 mmol/kg/day

## O=C(O)c1ccccc1
[3]
  outcome: inactive; no positive results

## ClCC1CO1 (stereo unspecified)
[3]
  outcome: inactive

## O=C(O)CN(CC(=O)O)CC(=O)O
TD50_Mouse_Note: TD50 is harmonic mean of more than one positive test, TargetSites_Mouse_Female: kidney
  Potency: 13.9 mmol/kg/day
[3]
  outcome: inactive; no positive results

## COc1c2occc2cc2ccc(=O)oc12
[3]
  outcome: inactive; no positive results

## O=C1C2CC=CCC2C(=O)N1SC(Cl)(Cl)Cl (stereo unspecified)
TD50_Mouse_Note: TD50 is harmonic mean of more than one positive test, TargetSites_Mouse_Female: small intestine
  Potency: 7.02 mmol/kg/day

## C[C@H]1CCCC(=O)CCC/C=C/c2cc(O)cc(O)c2C(=O)O1
TD50_Mouse_Note: TD50 is harmonic mean of more than one positive test, TargetSites_Mouse_Female: liver, pituitary gland
  Potency: 0.123 mmol/kg/day

## C=CCc1ccc(OC)c(OC)c1
[2]
  Potency: 0.108 mmol/kg/day

## ClC(Cl)(Cl)C(Cl)(Cl)Cl
[2]
  Potency: 1.43 mmol/kg/day

## O=S(=O)(Oc1ccc(Cl)cc1Cl)c1ccccc1
[3]
  outcome: inactive; no positive results

## COc1cc(-c2ccc(N)c(OC)c2)ccc1N
TD50_Mouse_Note: no positive results are statistically significant, TargetSites_Mouse_Female: no positive results
  Potency: 0.233 mmol/kg/day

## CC(=O)OC1CC(C)OC(C)O1 (stereo unspecified)
[3]
  outcome: inactive; no positive results

## Nc1ccc(N=Nc2ccc(N)cc2)cc1
[3]
  outcome: inactive; no positive results

## C[C@](N)(Cc1ccc(O)c(O)c1)C(=O)O
[3]
  outcome: inactive; no positive results

## O=C(O)c1ccc(N=Nc2ccc(O)c(C(=O)O)c2)cc1
[3]
  outcome: inactive; no positive results

## O=[O+][O-]
[1]
  Potency: 0.0392 mmol/kg/day

## C=CCOc1ccccc1OCC(O)CNC(C)C (stereo unspecified)
[3]
  outcome: inactive; no positive results

## O.O=S(=O)([O-])[O-].[Mn+2]
[3]
  outcome: inactive; no positive results

## C=C(Cl)Cl
TD50_Mouse_Note: TD50 is harmonic mean of more than one positive test, TargetSites_Mouse_Female: lung, mammary gland, vascular system
  Potency: 0.357 mmol/kg/day

## NCCNc1cccc2ccccc12
[3]
  outcome: inactive; no positive results

## C[C@@H]1CCC[C@H](C)N1CCCC(O)(c1ccccc1)c1ccccn1 (stereo partly specified)
[3]
  outcome: inactive; no positive results

## O=NO
[3]
  outcome: inactive; no positive results

## CNC[C@H](O)c1ccc(O)c(O)c1
[5]
  outcome: ntp bioassay inadequate

## ClCC(Br)CBr (stereo unspecified)
TD50_Mouse_Note: TD50 is harmonic mean of more than one positive test, TargetSites_Mouse_Female: lung, nasal cavity, stomach
  Potency: 0.0115 mmol/kg/day

## NS(=O)(=O)c1cc2c(cc1Cl)NCNS2(=O)=O
[3]
  outcome: inactive; no positive results

## O=CCCl
[4]
  Potency: 0.46 mmol/kg/day

## CC(=O)O[C@]1(C(C)=O)CC[C@H]2[C@@H]3C=C(Cl)C4=CC(=O)[C@@H]5C[C@@H]5[C@]4(C)[C@H]3CC[C@@]21C
TD50_Mouse_Note: TD50 is harmonic mean of more than one positive test, TargetSites_Mouse_Female: liver, stomach
  Potency: 0.0525 mmol/kg/day

## CCN(CC)C(=S)S
[3]
  outcome: inactive; no positive results

## ClC1C(Cl)C(Cl)C(Cl)C(Cl)C1Cl (stereo unspecified)
[2]
  Potency: 0.0956 mmol/kg/day
TD50_Mouse_Note: TD50 is harmonic mean of more than one positive test, TargetSites_Mouse_Female: liver, lung
  Potency: 0.106 mmol/kg/day
TD50_Mouse_Note: TD50 is harmonic mean of more than one positive test, harmonic mean of TD50 includes a value for upper 99% confidence li, TargetSites_Mouse_Female: liver
  Potency: 0.0509 mmol/kg/day
TD50_Mouse_Note: TD50 value is overestimated as upper 99% confidence limit from study with 100% tumor incidence but no lifetable, harmoni
  Potency: 0.0228 mmol/kg/day

## ClC(Cl)Cl
TD50_Mouse_Note: TD50 is harmonic mean of more than one positive test, greater than ten-fold variation among TD50 values for positive res, TargetSites_Mouse_Female: liver
  Potency: 0.93 mmol/kg/day

## Cc1ccc(N)cc1N
[2]
  Potency: 1.04 mmol/kg/day
[6]
  Potency: 0.219 mmol/kg/day

## CCCCCCCCS(=O)C(C)Cc1ccc2c(c1)OCO2 (stereo unspecified)
[4]
  Potency: 0.192 mmol/kg/day

## CN(C)C(=S)S
[3]
  outcome: inactive; no positive results

## NNc1nc(-c2ccc([N+](=O)[O-])cc2)cs1
[7]
  Potency: 0.0449 mmol/kg/day

## Cc1ccc(C)c(OCCCC(C)(C)C(=O)O)c1
[3]
  outcome: inactive; no positive results

## O.O.O.O.O=C([O-])CC(O)(CC(=O)[O-])C(=O)[O-].[Fe+3]
[3]
  outcome: inactive; no positive results

## Nc1ccc(Sc2ccc(N)cc2)cc1
TD50_Mouse_Note: TD50 is harmonic mean of more than one positive test, TargetSites_Mouse_Female: liver, thyroid gland
  Potency: 0.153 mmol/kg/day

## Nc1ncn([C@@H]2O[C@H](CO)[C@@H](O)[C@H]2O)c(=O)n1
TD50_Mouse_Note: positive test results only by intraperitoneal or intravenous injection, TD50 is harmonic mean of more than one positive, TargetSites_Mouse_Female: hematopoietic system, mammary gland, skin
  Potency: 0.000317 mmol/kg/day

## O=c1c(CO)c/c(=N/Nc2ccc(S(=O)(=O)O)c3ccccc23)c(=O)/c1=N/Nc1ccc(S(=O)(=O)O)c2ccccc12
[3]
  outcome: inactive; no positive results

## COC(=O)c1ccc(C(=O)OC)cc1
[3]
  outcome: inactive; no positive results

## NC(=S)Nc1cccc2ccccc12
[3]
  outcome: inactive; no positive results

## CC(C)(Oc1ccc(C2CC2(Cl)Cl)cc1)C(=O)O (stereo unspecified)
TD50_Mouse_Note: TD50 is harmonic mean of more than one positive test
  Potency: 0.0214 mmol/kg/day

## O=C1C(Cl)=C(Cl)C(=O)C(Cl)=C1Cl
[3]
  outcome: inactive; no positive results

## COc1cc(NC(=O)C(N=Nc2ccc(-c3ccc(N=NC(C(C)=O)C(=O)Nc4cc(OC)c(Cl)cc4OC)c(Cl)c3)cc2Cl)C(C)=O)c(OC)cc1Cl (stereo unspecified)
TargetSites_Mouse_BothSexes: no positive results
  outcome: inactive

## CN(C)c1ccc(Cc2ccc(N(C)C)cc2)cc1
[6]
  Potency: 0.814 mmol/kg/day

## CN(N=O)C(N)=O
  Potency: 0.0119 mmol/kg/day

## CCBr
TargetSites_Mouse_Female: uterus
  Potency: 4.91 mmol/kg/day

## Cc1cc(OC(=O)N(C)C)n(C(C)C)n1
[3]
  outcome: inactive; no positive results

## CN(C)c1ccc(C(=C2C=CC(=[N+](C)C)C=C2)c2ccc(N(C)C)cc2)cc1
TD50_Mouse_Note: TD50 is harmonic mean of more than one positive test, TargetSites_Mouse_Female: harderian gland, hematopoietic system, liver
  Potency: 0.222 mmol/kg/day

## O=c1cc(CO)occ1O
TD50_Mouse_Note: TD50 is harmonic mean of more than one positive test, TargetSites_Mouse_Female: thyroid gland
  Potency: 4.63 mmol/kg/day

## C=CC(O)c1ccc(OC)cc1 (stereo unspecified)
[6]
  Potency: 0.352 mmol/kg/day

## O=[As]O
TD50_Mouse_Note: no positive results, TargetSites_Mouse_BothSexes: no positive results
  outcome: inactive

## CCOc1ccc(NC(C)=O)cc1[N+](=O)[O-]
[4]
  Potency: 10.1 mmol/kg/day

## CCN(CC)C(=O)c1cccc(C)c1
[3]
  outcome: inactive; no positive results

## CCCCC1C(=O)N(c2ccccc2)N(c2ccccc2)C1=O
[4]
  Potency: 1.14 mmol/kg/day

## C1CCOC1
[6]
  Potency: 18 mmol/kg/day

## CN(C)C(=O)Nc1ccc(Cl)cc1
[3]
  outcome: inactive; no positive results

## CN(C)C(=O)NC1CC2CC1C1CCCC21 (stereo unspecified)
[3]
  outcome: inactive; no positive results

## ClC#CCl
TD50_Mouse_Note: TD50 is harmonic mean of more than one positive test, TargetSites_Mouse_Female: harderian gland, kidney
  Potency: 0.00605 mmol/kg/day

## COc1ccc(O)c(C(C)(C)C)c1
TD50_Mouse_Note: TD50 is harmonic mean of more than one positive test, no positive results are statistically significant, TargetSites_Mouse_Female: no positive results
  Potency: 30.7 mmol/kg/day

## NC(=O)Cc1cccc2ccccc12
[3]
  outcome: inactive; no positive results

## Cc1cccc(C)c1
[3]
  outcome: inactive; no positive results

## Nc1ccc2cc3ccc(N)cc3nc2c1
[5]
  outcome: ntp bioassay inadequate

## CC(C)(C)NC(=O)[C@H]1CC[C@H]2[C@@H]3CC[C@H]4NC(=O)C=C[C@]4(C)[C@H]3CC[C@]12C
  Potency: 0.875 mmol/kg/day

## CCOc1ccc(NC(C)=O)cc1N
[4]
  Potency: 10.7 mmol/kg/day

## C/C1=C\C=C(\C(C)C)[C@@H](O)C/C(C)=C/CC/C(C)=C/CC1
[8]
  outcome: inactive; no positive results

## ClC1=C(Cl)C2(Cl)C3C(Cl)C=CC3C1(Cl)C2(Cl)Cl (stereo unspecified)
[2]
  Potency: 0.00324 mmol/kg/day

## CCCN(N)C=O
TD50_Mouse_Note: TD50 is harmonic mean of more than one positive test, TargetSites_Mouse_Female: gall bladder, liver, lung
  Potency: 0.061 mmol/kg/day

## NC(CCC(=O)O)C(=O)O (stereo unspecified)
[8]
  outcome: inactive; no positive results

## CC(C)N(C(=O)SC/C(Cl)=C/Cl)C(C)C
TD50_Mouse_Note: TD50 is harmonic mean of more than one positive test, TargetSites_Mouse_Female: no positive results
  Potency: 0.0988 mmol/kg/day

## CC(Cl)CCl (stereo unspecified)
[2]
  Potency: 2.44 mmol/kg/day

## CC(=O)Oc1ccccc1C(=O)O
[3]
  outcome: inactive; no positive results

## O=C(O)/C=C/c1ccc(O)c(O)c1
TD50_Mouse_Note: TD50 is harmonic mean of more than one positive test, TargetSites_Mouse_Female: kidney, stomach
  Potency: 27.2 mmol/kg/day

## C=CC=O
[3]
  outcome: inactive; no positive results

## BrCCBr
TD50_Mouse_Note: TD50 is harmonic mean of more than one positive test, greater than ten-fold variation among TD50 values for positive res, TargetSites_Mouse_Female: esophagus, lung, mammary gland, nasal cavity, stomach, subcutaneous tissue, vascular system
  Potency: 0.0397 mmol/kg/day

## CC(C)Oc1ccc(Nc2ccccc2)cc1
[3]
  outcome: inactive; no positive results

## CC1CC(C)(C)CC(OOC(C)(C)C)(OOC(C)(C)C)C1 (stereo unspecified)
[3]
  outcome: inactive; no positive results

## CC(=O)Nc1ccc(N=Nc2cc(C)ccc2O)cc1
[6]
  Potency: 3.79 mmol/kg/day

## ClC1C2(Cl)C3C4C5OC5C5C4C1(Cl)C(Cl)(C53)C2(Cl)Cl (stereo unspecified)
[3]
  outcome: inactive; no positive results

## O=C(O)C(Cl)(Cl)Cl
[2]
  Potency: 3.57 mmol/kg/day

## C=CCOC(=O)CC(C)C
[7]
  Potency: 0.442 mmol/kg/day

## CCOc1ccc(NC(=O)CC(C)O)cc1 (stereo unspecified)
TD50_Mouse_Note: TD50_Mouse_mmol was not calculated for this mixture, but Activiity Score is assigned value of 50 to indicate active, TargetSites_Mouse_Female: no positive results
  outcome: active; kidney
